# Source: US10765751B2, “pH sensitive carrier and preparation method thereof, and pH sensitive drug and pH sensitive drug composition each containing the carrier, and method for treating or preventing diseases using the same” (TERUMO KABUSHIKI KAISHA, priority 2012, dated 2020)
# Test system: RAW cells
# Test: Evaluation of cytosolic delivery where pH sensitive carrier and physiologically active substance were used independently
# Assay type: cell-based
# Conditions: 30 μg/mL peptide-FITC or OVA-FITC, carrier added separately (160 nmol pH sensitive compound, 100 nmol amphipathic substance); FIG. 22
# Method: On the previous day, RAW cells were spread on a matsunami glass bottom dish and cultured with 10% FBS-containing MEM. After rinsing with PBS, MEM was added, followed by a one hour incubation. 1900 μL of MEM containing fluorescence-labeled peptide-FITC or fluorescence-labeled OVA-FITC at a concentration of 30 μg/mL was prepared and substituted with the culture medium. Moreover, a solution of 100 μL of a pH sensitive carrier was added, followed by 16 to 20 hours of incubation in the culture medium in such a state that both were mixed. It was already confirmed that the fluorescence-labeled peptide-FITC and fluorescence-labeled OVA-FITC were each not supported with the pH sensitive carrier in a mixed state with a pH sensitive carrier-containing solution. After rinsing with PBS and three hours post-incubation with 2 mL of fresh MEM, the cells were rinsed with PBS, followed by substitution with phenol red-free DMEM and observation through a fluorescence microscope. The culture was carried out by use of an incubator (MCO20AIC) set at 5% CO2 and 37° C. and the cells were observed through a fluorescence microscope (Axiovert 200M—soft: Axio vision 3.0—light source: Fluo Arc).
substance,measurement,value
fluorescence-labeled OVA-FITC: FITC fluorescence-labeled OVA model protein,localisation of fluorescence-labeled peptide-FITC or OVA-FITC in cells (cytosolic delivery),remained in the endosome
